target: Voltage-dependent N-type calcium channel subunit alpha-1B (Homo sapiens, UniProt Q00975); assay: In vitro antagonism of N-type voltage sensitive calcium channel in IMR-32 assay using fluorescent [Ca2+] indicator […] in the presence of 5 uM nitrendipine; format: functional
Sequence (Q00975 whole entry): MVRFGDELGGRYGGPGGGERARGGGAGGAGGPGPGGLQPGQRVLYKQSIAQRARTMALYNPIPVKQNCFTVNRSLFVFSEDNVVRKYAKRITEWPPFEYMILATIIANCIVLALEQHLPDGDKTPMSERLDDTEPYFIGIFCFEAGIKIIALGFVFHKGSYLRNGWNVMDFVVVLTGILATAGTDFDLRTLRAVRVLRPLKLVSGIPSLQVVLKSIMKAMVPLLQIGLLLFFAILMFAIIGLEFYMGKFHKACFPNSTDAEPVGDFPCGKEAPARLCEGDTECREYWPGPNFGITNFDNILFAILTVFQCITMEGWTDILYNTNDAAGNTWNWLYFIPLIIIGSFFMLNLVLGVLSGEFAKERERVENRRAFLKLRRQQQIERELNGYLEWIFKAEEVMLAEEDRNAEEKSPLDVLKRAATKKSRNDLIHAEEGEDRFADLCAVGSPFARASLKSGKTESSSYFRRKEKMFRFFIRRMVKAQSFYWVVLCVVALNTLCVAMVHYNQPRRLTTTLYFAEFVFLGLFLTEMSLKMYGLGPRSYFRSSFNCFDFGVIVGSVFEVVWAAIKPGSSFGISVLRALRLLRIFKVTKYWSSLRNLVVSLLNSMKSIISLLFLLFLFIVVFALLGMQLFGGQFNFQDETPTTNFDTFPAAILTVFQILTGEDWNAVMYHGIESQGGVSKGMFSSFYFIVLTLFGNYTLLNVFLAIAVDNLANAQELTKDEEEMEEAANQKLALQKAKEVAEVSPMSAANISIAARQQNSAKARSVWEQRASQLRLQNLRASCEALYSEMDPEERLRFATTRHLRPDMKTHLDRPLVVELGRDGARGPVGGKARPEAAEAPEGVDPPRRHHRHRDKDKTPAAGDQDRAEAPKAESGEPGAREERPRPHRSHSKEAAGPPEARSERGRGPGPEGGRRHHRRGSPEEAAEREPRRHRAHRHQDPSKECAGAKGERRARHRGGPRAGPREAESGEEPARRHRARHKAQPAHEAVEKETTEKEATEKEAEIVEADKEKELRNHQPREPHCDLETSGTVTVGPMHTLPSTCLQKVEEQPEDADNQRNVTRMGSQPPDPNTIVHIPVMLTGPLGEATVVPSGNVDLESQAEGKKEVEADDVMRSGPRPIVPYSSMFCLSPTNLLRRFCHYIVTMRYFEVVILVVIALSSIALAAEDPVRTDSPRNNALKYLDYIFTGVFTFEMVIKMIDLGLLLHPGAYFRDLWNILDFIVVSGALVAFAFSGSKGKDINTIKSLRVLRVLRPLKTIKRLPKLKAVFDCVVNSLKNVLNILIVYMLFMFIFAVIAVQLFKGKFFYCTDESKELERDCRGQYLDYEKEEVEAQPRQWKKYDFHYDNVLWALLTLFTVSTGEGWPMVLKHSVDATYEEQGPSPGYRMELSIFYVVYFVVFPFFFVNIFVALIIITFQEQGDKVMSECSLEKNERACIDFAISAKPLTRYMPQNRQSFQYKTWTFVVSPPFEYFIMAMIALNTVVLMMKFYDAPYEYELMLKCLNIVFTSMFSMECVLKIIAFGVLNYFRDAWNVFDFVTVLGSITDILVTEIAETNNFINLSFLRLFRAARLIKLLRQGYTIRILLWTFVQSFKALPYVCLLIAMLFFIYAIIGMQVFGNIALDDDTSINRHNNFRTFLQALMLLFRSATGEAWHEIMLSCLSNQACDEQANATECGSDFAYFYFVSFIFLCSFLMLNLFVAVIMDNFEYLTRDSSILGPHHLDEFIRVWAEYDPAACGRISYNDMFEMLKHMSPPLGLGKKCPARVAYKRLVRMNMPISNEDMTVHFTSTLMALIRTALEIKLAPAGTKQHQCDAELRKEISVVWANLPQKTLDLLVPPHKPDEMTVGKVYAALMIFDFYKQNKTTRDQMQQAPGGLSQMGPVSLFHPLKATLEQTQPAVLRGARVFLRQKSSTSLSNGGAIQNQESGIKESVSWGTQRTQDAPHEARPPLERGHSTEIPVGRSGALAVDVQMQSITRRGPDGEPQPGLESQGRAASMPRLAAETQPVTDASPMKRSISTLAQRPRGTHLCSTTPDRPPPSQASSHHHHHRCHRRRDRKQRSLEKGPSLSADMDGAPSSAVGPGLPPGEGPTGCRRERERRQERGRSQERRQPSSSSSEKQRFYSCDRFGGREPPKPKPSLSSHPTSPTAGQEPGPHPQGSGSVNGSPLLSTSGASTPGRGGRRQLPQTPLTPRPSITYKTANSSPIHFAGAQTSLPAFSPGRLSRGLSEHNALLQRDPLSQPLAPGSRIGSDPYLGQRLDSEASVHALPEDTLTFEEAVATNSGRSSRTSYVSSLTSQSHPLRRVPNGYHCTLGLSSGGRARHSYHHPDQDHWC

Question: Which IC50 does the source give for `CC(C)C[C@@H](C(=O)N[C@@H](Cc1ccc(OCc2ccccc2)cc1)C(=O)NC1CCN(Cc2ccccc2)CC1)N(C)CC1CCCCC1` here?
Answer: The IC50 was 310 nM.

Question: `CC(C)C[C@@H](C(=O)N[C@@H](Cc1ccc(OCc2ccccc2)cc1)C(=O)N1CCN(Cc2ccccc2)CC1)N(C)Cc1ccc(C(C)(C)C)cc1` was tested. Which IC50 did it give?
Answer: Its IC50 is 500 nM.

Question: With `CC(C)C[C@@H](C(=O)N[C@@H](Cc1ccc(OCc2ccccc2)cc1)C(=O)N1CCN(Cc2ccccc2)CC1)N(C)CC1CCCCC1` as the molecule, how does the IC50 read?
Answer: Its IC50 is 420 nM.

Question: `CC(C)C[C@@H](C(=O)N[C@@H](Cc1ccc(OCc2ccccc2)cc1)C(=O)N1CCCCC1)N(C)Cc1ccc(C(C)(C)C)cc1` was tested. Which IC50 did it give?
Answer: Its IC50 is 90 nM.

Question: How did the IC50 turn out when `CC(C)C[C@@H](C(=O)N[C@@H](Cc1ccc(OCc2ccccc2)cc1)C(=O)NC1CCN(Cc2ccccc2)CC1)N(C)Cc1ccc(C(C)(C)C)cc1` was run?
Answer: The IC50 was 270 nM.

Question: How did the IC50 turn out when `CC(C)C[C@@H](C(=O)N[C@@H](Cc1ccc(OCc2ccccc2)cc1)C(=O)N1CCCCC1)N(C)C` was run?
Answer: Its IC50 is 1900 nM.

Question: Which IC50 does the source give for `CC(C)CCN(C)[C@@H](CC(C)C)C(=O)N[C@@H](Cc1ccc(OCc2ccccc2)cc1)C(=O)NCCN1CCCCC1` here?
Answer: The IC50 was 1100 nM.

Question: With `CC(C)C[C@@H](C(=O)N[C@@H](Cc1ccc(OCc2ccccc2)cc1)C(=O)N1CCCCC1)N(C)C1CCCCC1` as the molecule, how does the IC50 read?
Answer: Its IC50 is 380 nM.

Question: How did the IC50 turn out when `CC(C)C[C@@H](C(=O)N[C@@H](Cc1ccc(OCc2ccccc2)cc1)C(=O)N1CCN(Cc2ccccc2)CC1)N(C)C1CCCCC1` was run?
Answer: Its IC50 is 760 nM.

Question: For `CC(C)C[C@@H](C(=O)N[C@@H](Cc1ccc(OCc2ccccc2)cc1)C(=O)NC(C)(C)C)N(C)C1CCCCC1`, which IC50 is on record?
Answer: The IC50 was 200 nM.

Question: `CC(C)C[C@@H](C(=O)N[C@@H](Cc1ccc(OCc2ccccc2)cc1)C(=O)NCCN1CCCCC1)N(C)C` was tested. Which IC50 did it give?
Answer: The IC50 was 4100 nM.

Question: `CC(C)CCN(C)[C@@H](CC(C)C)C(=O)N[C@@H](Cc1ccc(OCc2ccccc2)cc1)C(=O)NC(C)(C)C` was tested. Which IC50 did it give?
Answer: The IC50 was 320 nM.

Question: For `CC(C)C[C@@H](C(=O)N[C@@H](Cc1ccc(OCc2ccccc2)cc1)C(=O)NC1CCN(Cc2ccccc2)CC1)N(C)C`, which IC50 is on record?
Answer: The IC50 was 2600 nM.

Question: With `CC(C)C[C@@H](C(=O)N[C@@H](Cc1ccc(OCc2ccccc2)cc1)C(=O)NC(C)(C)C)N(C)CC1CCCCC1` as the molecule, how does the IC50 read?
Answer: The IC50 was 500 nM.

Question: How did the IC50 turn out when `CC(C)C[C@@H](C(=O)N[C@@H](Cc1ccc(OCc2ccccc2)cc1)C(=O)NCCN1CCCCC1)N(C)Cc1ccc(C(C)(C)C)cc1` was run?
Answer: Its IC50 is 310 nM.

Question: Which IC50 does the source give for `CC(C)C[C@@H](C(=O)N[C@@H](Cc1ccc(OCc2ccccc2)cc1)C(=O)NC(C)(C)C)N(C)C` here?
Answer: Its IC50 is 2800 nM.

Question: How did the IC50 turn out when `CC(C)C[C@@H](C(=O)N[C@@H](Cc1ccc(OCc2ccccc2)cc1)C(=O)N1CCCCC1)N(C)CC1CCCCC1` was run?
Answer: Its IC50 is 320 nM.

Question: How did the IC50 turn out when `CC(C)C[C@@H](C(=O)N[C@@H](Cc1ccc(OCc2ccccc2)cc1)C(=O)N1CCN(C)CC1)N(C)CC1CCCCC1` was run?
Answer: Its IC50 is 1200 nM.

Question: With `CC(C)C[C@@H](C(=O)N[C@@H](Cc1ccc(OCc2ccccc2)cc1)C(=O)NCCN1CCCCC1)N(C)C1CCCCC1` as the molecule, how does the IC50 read?
Answer: Its IC50 is 880 nM.

Question: `CC(C)C[C@@H](C(=O)N[C@@H](Cc1ccc(OCc2ccccc2)cc1)C(=O)NC(C)(C)C)N(C)Cc1ccc(C(C)(C)C)cc1` was tested. Which IC50 did it give?
Answer: Its IC50 is 40 nM.

Question: With `CC(C)C[C@@H](C(=O)N[C@@H](Cc1ccc(OCc2ccccc2)cc1)C(=O)NC1CCN(Cc2ccccc2)CC1)N(C)C1CCCCC1` as the molecule, how does the IC50 read?
Answer: The IC50 was 1300 nM.

Question: For `CC(C)CCN(C)[C@@H](CC(C)C)C(=O)N[C@@H](Cc1ccc(OCc2ccccc2)cc1)C(=O)N1CCN(Cc2ccccc2)CC1`, which IC50 is on record?
Answer: The IC50 was 590 nM.

Question: With `CC(C)CCN(C)[C@@H](CC(C)C)C(=O)N[C@@H](Cc1ccc(OCc2ccccc2)cc1)C(=O)NC1CCN(Cc2ccccc2)CC1` as the molecule, how does the IC50 read?
Answer: Its IC50 is 880 nM.

Question: How did the IC50 turn out when `CC(C)C[C@@H](C(=O)N[C@@H](Cc1ccc(OCc2ccccc2)cc1)C(=O)N1CCN(Cc2ccccc2)CC1)N(C)C` was run?
Answer: The IC50 was 1200 nM.

Question: Which IC50 does the source give for `CC(C)C[C@@H](C(=O)N[C@@H](Cc1ccc(OCc2ccccc2)cc1)C(=O)N1CCN(C)CC1)N(C)Cc1ccc(C(C)(C)C)cc1` here?
Answer: The IC50 was 440 nM.

Question: Which IC50 does the source give for `CC(C)CCN(C)[C@@H](CC(C)C)C(=O)N[C@@H](Cc1ccc(OCc2ccccc2)cc1)C(=O)N1CCCCC1` here?
Answer: Its IC50 is 660 nM.

Question: `CC(C)CCN(C)[C@@H](CC(C)C)C(=O)N[C@@H](Cc1ccc(OCc2ccccc2)cc1)C(=O)N1CCN(C)CC1` was tested. Which IC50 did it give?
Answer: Its IC50 is 1200 nM.

Question: `CC(C)C[C@@H](C(=O)N[C@@H](Cc1ccc(OCc2ccccc2)cc1)C(=O)N1CCN(C)CC1)N(C)C` was tested. Which IC50 did it give?
Answer: The IC50 was 13000 nM.

Question: With `CC(C)C[C@@H](C(=O)N[C@@H](Cc1ccc(OCc2ccccc2)cc1)C(=O)N1CCN(C)CC1)N(C)C1CCCCC1` as the molecule, how does the IC50 read?
Answer: Its IC50 is 5600 nM.

Question: `CC(C)C[C@@H](C(=O)N[C@@H](Cc1ccc(OCc2ccccc2)cc1)C(=O)NCCN1CCCCC1)N(C)CC1CCCCC1` was tested. Which IC50 did it give?
Answer: The IC50 was 1000 nM.
